Earlier results as cited in patent US20220160704A2, “COMPOSITIONS FOR OPIATE AND OPIOID PREVENTION AND REVERSAL, AND METHODS OF THEIR USE” (Torralva Medical Therapeutics LLC, priority 2018, published 2022).
Where a name gives a salt, the structure may show the parent alone. Read-outs that look alike come from different tables or passages of the source.

Experiments:
[1] = cited from earlier work
[2] = cited from earlier work; remark: listed apart in the source
[3] = cited from earlier work; remark: listed apart in the source
[4] = cited from earlier work; remark: listed apart in the source
[5] = cited from earlier work; remark: listed apart in the source
[6] = pH 7.4; cited from earlier work
[7] = 25° C.; cited from earlier work
[8] = in vivo; cited from earlier work
[9] = cited from earlier work; remark: listed apart in the source
α-1 1A subtype = biological target: T1, α-1 1A subtype (Homo sapiens, UniProt P35348); conditions: greater than Prazosin; cited from earlier work
T1 sequence (P35348 1-466): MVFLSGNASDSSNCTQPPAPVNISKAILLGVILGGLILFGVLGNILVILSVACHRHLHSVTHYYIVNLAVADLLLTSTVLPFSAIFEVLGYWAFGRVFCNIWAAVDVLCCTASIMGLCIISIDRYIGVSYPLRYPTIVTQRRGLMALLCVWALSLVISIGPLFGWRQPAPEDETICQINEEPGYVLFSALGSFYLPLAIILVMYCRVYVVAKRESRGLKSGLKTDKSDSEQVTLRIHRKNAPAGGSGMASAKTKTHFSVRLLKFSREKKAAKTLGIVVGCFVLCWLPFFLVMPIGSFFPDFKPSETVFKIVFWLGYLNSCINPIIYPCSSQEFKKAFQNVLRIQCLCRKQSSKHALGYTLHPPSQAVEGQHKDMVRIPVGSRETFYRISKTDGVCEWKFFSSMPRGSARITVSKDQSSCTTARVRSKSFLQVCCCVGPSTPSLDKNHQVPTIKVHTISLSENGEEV

[10] = subcutaneous injection of 10 mg; cited from earlier work

1 H,5 H-Tropan-3-ol (±)-tropate [Atropine]
Dose that can produce a paradoxical bradycardia ([1]; adults): less than 0.5 mg

COc1cc2nc(N(C)CCCNC(=O)C3CCCO3)nc(N)c2cc1OC.Cl (racemic) [ALFUZOSIN, (R,S)—N-[3-[(4-amino-6,7-dimethoxy-2-quinazolinyl)methylamino]propyl]tetrahydro-2-furancarboxamide hydrochloride]
Solubility in dichloromethane / methylene chloride [2]: practically insoluble | Solubility in ethanol / alcohol [2]: sparingly soluble | Solubility in water [2]: freely soluble | Dizziness ([3]; human, in vivo): 6% | Hypotension ([3]; human, in vivo): 0.4% | Syncope ([3]; human, in vivo): 0.2%

COc1cc2nc(N3CCN(C(=O)C4CCCO4)CC3)nc(N)c2cc1OC (racemic) [TERAZOSIN, (RS)-Piperazine, 1-(4-amino-6,7-dimethoxy-2-quinazolinyl)-4-[(tetra-hydro-2-furanyl)carbonyl]-, monohydrochloride, dihydrate]
Solubility in isotonic saline [2]: freely soluble | Solubility in water [2]: freely soluble | Postural hypotension ([3]; trial of 600 subjects): 4% | Syncope ([3]; trial subjects): 0.6% | Half-life (in words) ([4]; in vivo): long half-life

Cl.Clc1cccc(Cl)c1NC1=NCCN1 [Clondine hydrochloride, 2-(2,6-dichlorophenylamino)-2-imidazoline hydrochloride]
Maximum effective daily dose ([1]; oral): 2.4 mg

COc1cc2nc(N3CCN(C(=O)C4COc5ccccc5O4)CC3)nc(N)c2cc1OC (centres unmarked) [DOXAZOSIN, 1-(4-amino-6,7-dimethoxy-2-quinazolinyl)-4-(1,4benzodioxan-2-ylcarbonyl) piperazine methanesulfonate]
Solubility in acetone ([2]; acetone): very slightly soluble | Solubility in dichloromethane / methylene chloride [2]: very slightly soluble | Solubility in dimethylformamide ([2]; dimethylformamide): soluble | Solubility in dimethylsulfoxide ([2]; dimethylsulfoxide): freely soluble | Solubility in ethanol / alcohol [2]: slightly soluble | Solubility in methanol ([2]; methanol): slightly soluble | Solubility in water ([2]; 25° C.): 0.8% | Solubility in water [2]: slightly soluble | Half-life (in words) ([4]; in vivo): long half-life

CNC(C)C(O)c1ccccc1 (stereo not drawn) [Ephedrine, benzenemethanol α-[1-(methylamino)ethyl]-sulfate (2:1) (salt)]
Light stability ([5]; exposure to light): darkens on exposure to light

CCOC(=O)c1ncn2c1CN(C)C(=O)c1cc(F)ccc1-2 [Flumazenil, ethyl 8-fluoro-5,6-dihydro-5-methyl-6-oxo-4H-imidazo[1,5-a](1,4) benzodiazepine-3-carboxylate]
Solubility in acidic aqueous solutions ([2]; acidic aqueous solutions): slightly soluble | Solubility in water [2]: insoluble | octanol: buffer partition coefficient [6]: 14 to 1

C=CCN1CC[C@]23c4c5ccc(O)c4O[C@H]2C(=O)CC[C@@]3(O)[C@H]1C5.Cl [Naloxone hydrochloride, 17-Allyl-4,5α-epoxy-3,14-dihydroxymorphinan-6-one hydrochloride]
Solubility in chloroform ([2]; chloroform): practically insoluble | Solubility in dilute acids ([2]; dilute acids): soluble | Solubility in ethanol / alcohol [2]: slightly soluble | Solubility in ether ([2]; ether / ethyl ether): practically insoluble | Solubility in strong alkali ([2]; strong alkali): soluble | Solubility in water [2]: soluble

O=C1CC[C@@]2(O)[C@H]3Cc4ccc(O)c5c4[C@@]2(CCN3CC2CC2)[C@H]1O5 [Naltrexone base anhydrous, morphinan-6-one, 17 (cyclopropylmethyl) 4,5-epoxy3,14-dihydroxy-(5a)]
Solubility in ethanol / alcohol [2]: soluble | Solubility in water [2]: insoluble

CN1CCC[C@H]1c1cccnc1 [Nicotine]
Miscibility with water ([2]; base form): miscible with water in its base form between 60 °C and 210 °C | Vapor pressure [7]: 5.5 Pa | Time to reach the brain ([4]; after inhalation): 10 to 20 s | Route of excretion ([4]; in vivo): primarily excreted in urine | Crossing of the blood brain barrier [8]: crosses the blood-brain barrier

COc1cc2nc(N3CCN(C(=O)c4ccco4)CC3)nc(N)c2cc1OC.Cl [PRAZOSIN, 1-(4-amino-6,7-dimethoxy-2-quiazolinyl)-4-(2-furoyl) piperazine]
Solubility in isotonic saline [2]: slightly soluble | Solubility in water [2]: slightly soluble | Syncope and symptoms of hypotension, share of subjects ([3]; 1 mg BID/TID up to 20 mg total QD): 6-12% | Crossing of the blood brain barrier [8]: ability to cross the blood brain barrier

C[C@H](Cc1cc2c(c(C(N)=O)c1)N(CCCO)CC2)NCCOc1ccccc1OCC(F)(F)F [SILODOSIN]
Solubility in ethanol / alcohol [2]: freely soluble | Solubility in acetic acid ([2]; glacial acetic acid / acetic acid): very soluble | Solubility in water [2]: very slightly soluble | Dizziness and orthostatic hypotension ([3]; 8 mg QD, study of 897 subjects): 3% | Syncope, subjects affected / subjects ([3]; 8 mg QD, study of 897 subjects): 1/897

C[N+](C)(C)CCOC(=O)CCC(=O)OCC[N+](C)(C)C [Succinylcholine]
Persistence of maximum blockade ([9]; 0.3-1.1 mg/kg): about 2 minutes | Time to recovery after maximum blockade ([9]; 0.3-1.1 mg/kg): 4 to 6 min | Time until neuromuscular blockade develops ([9]; 0.3-1.1 mg/kg): about 1 minute | Onset of effect given intramuscularly ([9]; intramuscular, up to 3 to 4 mg/kg): 2 to 3 min | Storage stability of solutions ([5]; refrigeration): lose potency unless refrigerated | Bradycardia ([1]; human, in vivo): bradycardia is common in pediatric patients after an initial dose of 1.5 mg/kg

CCOc1ccccc1OCCN[C@H](C)Cc1ccc(OC)c(S(N)(=O)=O)c1.Cl [Tamsulosin hydrochloride, (−)-(R)-5-[2-[[2-(o-Ethoxyphenoxy)ethyl]amino]propyl]-2-methoxybenzenesulfon-amide, monohydrochloride]
Binding affinity at the 1A subtype over other α-1 antagonists (α-1 1A subtype): 12-30 times | Incidence of hypotension, syncope, vertigo ([3]; Dose 0.4-0.8 mg QD): 0.2%-0.6% | Half-life (in words) ([4]; in vivo): long half-life | Crossing of the blood brain barrier [8]: ability to cross the blood brain barrier

CC[C@@H]1C(=O)OC[C@@H]1Cc1cncn1C [pilocarpine HCl]
Salivation [10]: 1 L

C=CC[N+]1([C@H]2C[C@H]3[C@@H]4CC[C@H]5C[C@H](O)[C@@H](N6CCOCC6)C[C@]5(C)[C@H]4CC[C@]3(C)[C@H]2OC(C)=O)CCCC1.[Br-] [rocuronium bromide, 1-[17β-(acetyloxy)-3α-hydroxy-2β-(4-morpholinyl)-5α-androstan-16β-yl]-1-(2-propenyl)pyrroidinium bromide]
Time in which most patients have intubation completed ([9]; initial dose 0.6 mg/kg): ≤ 2 min | Time to maximum blockade in most patients ([9]; initial dose 0.6 mg/kg): less than 3 minutes | Time to neuromuscular block sufficient for intubation (80% block or greater), median (range) ([9]; initial dose 0.6 mg/kg): 1 (0.4-6) minute(s)
